From patent US20240209028A1, “CNP COMPOUNDS” (priority 2022, published 2024)
Starred links: 1 amine or outer side, 2 acyl side, 3 side chain; linkers in the order of their positions; H or OH if unused. Positions of bridges follow the written chain, without caps; N, C: chain ends. Residues, ends and D or L forms follow the SMILES beside them. *: point of attachment. C18 diacid = O=C(O)CCCCCCCCCCCCCCCCC(=O)*; γGlu = O=C(O)[C@H](CCC(=O)[*:2])N[*:1]; AEEA = NCCOCCOCC(=O)O

Target: T1, human natriuretic peptide receptor 2 (hNPR2) (Homo sapiens, UniProt P20594)
T1 construct: expressed in transfected cells; host or cells: HEK293 (ATCC CRL-1573), clone 35, co-transfected with pGloSensor-42F
T1 sequence (P20594 23-1047): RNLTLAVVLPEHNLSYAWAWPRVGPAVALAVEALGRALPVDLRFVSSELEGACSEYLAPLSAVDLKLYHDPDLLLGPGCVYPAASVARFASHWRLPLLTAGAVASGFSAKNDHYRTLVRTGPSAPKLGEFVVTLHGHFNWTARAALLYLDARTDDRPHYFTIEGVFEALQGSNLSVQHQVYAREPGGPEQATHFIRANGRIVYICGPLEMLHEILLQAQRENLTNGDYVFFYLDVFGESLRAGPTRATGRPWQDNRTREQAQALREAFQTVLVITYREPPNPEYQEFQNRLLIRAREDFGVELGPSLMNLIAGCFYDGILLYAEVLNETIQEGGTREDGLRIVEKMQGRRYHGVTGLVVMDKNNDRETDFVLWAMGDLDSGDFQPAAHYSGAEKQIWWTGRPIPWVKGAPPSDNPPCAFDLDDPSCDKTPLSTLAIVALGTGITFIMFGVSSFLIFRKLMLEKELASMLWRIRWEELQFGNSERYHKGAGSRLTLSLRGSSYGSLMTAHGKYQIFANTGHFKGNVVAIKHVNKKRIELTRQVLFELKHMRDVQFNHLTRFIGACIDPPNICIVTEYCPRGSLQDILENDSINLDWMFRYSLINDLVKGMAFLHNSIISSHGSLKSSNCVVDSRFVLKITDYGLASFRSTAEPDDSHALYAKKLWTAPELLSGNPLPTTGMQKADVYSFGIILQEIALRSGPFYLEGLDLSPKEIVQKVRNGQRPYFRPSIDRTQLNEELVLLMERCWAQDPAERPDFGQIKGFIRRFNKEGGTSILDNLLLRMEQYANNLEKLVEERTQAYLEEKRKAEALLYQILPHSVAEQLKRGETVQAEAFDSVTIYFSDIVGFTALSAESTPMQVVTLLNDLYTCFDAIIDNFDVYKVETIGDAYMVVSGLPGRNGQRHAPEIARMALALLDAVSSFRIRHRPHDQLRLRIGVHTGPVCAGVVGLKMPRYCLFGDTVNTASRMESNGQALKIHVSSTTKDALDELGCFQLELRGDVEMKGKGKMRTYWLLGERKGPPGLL
Experiment: In vitro hNPR2 activity assay (cGMP GloSensor reporter, HEK293)
Format: cell-based
Details: for EC50: 0% HSA, HEK293-hNPR2/GloSensor cells; for hNPR2 0% HSA. [EC50% rel CNP]: potency relative to CNP22 (0065)
Summary of the method: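 Potency is the EC50 from a four-parameter logistic fit, also expressed relative to the in-plate CNP22 control (×100), with at least two replicates. Compounds (ten concentrations, […], HSA-free diluent with 1% OVA, 0.01% Tween20) were incubated 30 min at 37 °C on HEK293 cells co-expressing hNPR2 and a GloSensor cGMP luciferase. Luminescence detected with Bright-Glo.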

Structure (SMILES)	EC50 [nM]	hNPR2 0% HSA. [EC50% rel CNP] [%]
CC[C@H](C)[C@@H]1NC(=O)[C@H](CCCNC(=N)N)NC(=O)[C@H](CCC(=O)O)NC(=O)[C@H](CC(C)C)NC(=O)[C@H](CCCCN)NC(=O)[C@H](CC(C)C)NC(=O)CNC(=O)[C@H](Cc2ccccc2)NC(=O)[C@@H](NC(=O)CNC(=O)[C@H](CCCCN)NC(=O)[C@H](CO)NC(=O)[C@H](CC(C)C)NC(=O)CNC(=O)[C@H](CCCCN)NC(=O)[C@H](CCCCN)NC(=O)[C@H](CCC(N)=O)NC(=O)[C@H](C)NC(=O)CNC(=O)[C@H](CCCCN)NC(=O)[C@H](Cc2ccc(O)cc2)NC(=O)[C@H](CCCCN)NC(=O)[C@H](CCCNC(=N)N)NC(=O)[C@H](C)NC(=O)COCCOCCNC(=O)COCCOCCNC(=O)CC[C@H](NC(=O)CCCCCCCCCCCCCCCCC(=O)O)C(=O)O)CSSC[C@@H](C(=O)O)NC(=O)CNC(=O)[C@H](CC(C)C)NC(=O)CNC(=O)[C@H](CO)NC(=O)[C@H](CC(C)C)NC(=O)[C@H](CO)NC(=O)CNC1=O [compound 0776] ({C18 diacid-γGlu-AEEA-AEEA}-ARKYKGAQKKGLSKGCFGLKLERIGSLSGLGC-OH; disulfide 16-32)	0.58	33.2
CC[C@H](C)[C@@H]1NC(=O)[C@H](CCCNC(=N)N)NC(=O)[C@H](CC(=O)O)NC(=O)[C@H](CC(C)C)NC(=O)[C@@H]2CCCN2C(=O)[C@H](CC(C)C)NC(=O)CNC(=O)[C@H](Cc2ccccc2)NC(=O)[C@@H](NC(=O)CNC(=O)[C@H](CCCCN)NC(=O)[C@H](CO)NC(=O)[C@H](CC(C)C)NC(=O)CNC(=O)[C@H](CCCCN)NC(=O)[C@H](CCCCN)NC(=O)[C@H](CCC(N)=O)NC(=O)[C@H](C)NC(=O)CNC(=O)[C@H](CCC(=O)O)NC(=O)[C@H](Cc2ccc(O)cc2)NC(=O)COCCOCCNC(=O)COCCOCCNC(=O)CC[C@H](NC(=O)CCCCCCCCCCCCCCCCC(=O)O)C(=O)O)CSSC[C@@H](C(=O)O)NC(=O)CNC(=O)[C@H](CC(C)C)NC(=O)CNC(=O)[C@H](CO)NC(=O)[C@H](CC(C)C)NC(=O)[C@H](CO)NC(=O)CNC1=O [compound 1225] ({C18 diacid-γGlu-AEEA-AEEA}-YEGAQKKGLSKGCFGLPLDRIGSLSGLGC-OH; disulfide 13-29)		29.4
CC[C@H](C)[C@@H]1NC(=O)[C@H](CCCNC(=N)N)NC(=O)[C@H](CC(=O)O)NC(=O)[C@H](CC(C)C)NC(=O)[C@@H]2CCCN2C(=O)[C@H](CC(C)C)NC(=O)CNC(=O)[C@H](Cc2ccccc2)NC(=O)[C@@H](NC(=O)CNC(=O)[C@H](CO)NC(=O)[C@H](CO)NC(=O)[C@H](CC(C)C)NC(=O)CNC(=O)[C@H](CCCCN)NC(=O)[C@H](CCCCN)NC(=O)[C@H](CCC(N)=O)NC(=O)[C@H](C)NC(=O)CNC(=O)[C@H](CCC(=O)O)NC(=O)[C@H](Cc2ccc(O)cc2)NC(=O)COCCOCCNC(=O)COCCOCCNC(=O)CC[C@H](NC(=O)CCCCCCCCCCCCCCCCC(=O)O)C(=O)O)CSSC[C@@H](C(=O)O)NC(=O)CNC(=O)[C@H](CC(C)C)NC(=O)CNC(=O)[C@H](CO)NC(=O)[C@H](CC(C)C)NC(=O)[C@H](CO)NC(=O)CNC1=O [compound 1227] ({C18 diacid-γGlu-AEEA-AEEA}-YEGAQKKGLSSGCFGLPLDRIGSLSGLGC-OH; disulfide 13-29)		38.2
CC[C@H](C)[C@@H]1NC(=O)[C@H](CCCNC(=N)N)NC(=O)[C@H](CC(=O)O)NC(=O)[C@H](CC(C)C)NC(=O)[C@@H]2CCCN2C(=O)[C@H](CC(C)C)NC(=O)CNC(=O)[C@H](Cc2ccccc2)NC(=O)[C@@H](NC(=O)CNC(=O)[C@H](CO)NC(=O)[C@H](CO)NC(=O)[C@H](CC(C)C)NC(=O)CNC(=O)[C@H](CCCCN)NC(=O)[C@H](CCCCN)NC(=O)[C@H](CCC(N)=O)NC(=O)[C@H](C)NC(=O)CNC(=O)[C@H](CCCCN)NC(=O)[C@H](Cc2ccc(O)cc2)NC(=O)COCCOCCNC(=O)COCCOCCNC(=O)CC[C@H](NC(=O)CCCCCCCCCCCCCCCCC(=O)O)C(=O)O)CSSC[C@@H](C(=O)O)NC(=O)CNC(=O)[C@H](CC(C)C)NC(=O)CNC(=O)[C@H](CO)NC(=O)[C@H](CC(C)C)NC(=O)[C@H](CO)NC(=O)CNC1=O [compound 1233] ({C18 diacid-γGlu-AEEA-AEEA}-YKGAQKKGLSSGCFGLPLDRIGSLSGLGC-OH; disulfide 13-29)		49.7
CC[C@H](C)[C@@H]1NC(=O)[C@H](CCCNC(=N)N)NC(=O)[C@H](CC(=O)O)NC(=O)[C@H](CC(C)C)NC(=O)[C@H](CCCCN)NC(=O)[C@H](CC(C)C)NC(=O)CNC(=O)[C@H](Cc2ccccc2)NC(=O)[C@@H](NC(=O)CNC(=O)[C@H](CCCCN)NC(=O)[C@H](CO)NC(=O)[C@H](CC(C)C)NC(=O)CNC(=O)[C@H](CCCCN)NC(=O)[C@H](CCCCN)NC(=O)[C@H](CCC(N)=O)NC(=O)[C@H](C)NC(=O)CNC(=O)[C@H](Cc2c[nH]cn2)NC(=O)[C@H](CCC(=O)O)NC(=O)COCCOCCNC(=O)COCCOCCNC(=O)CC[C@H](NC(=O)CCCCCCCCCCCCCCCCC(=O)O)C(=O)O)CSSC[C@@H](C(=O)O)NC(=O)CNC(=O)[C@H](CC(C)C)NC(=O)CNC(=O)[C@H](CO)NC(=O)[C@H](CC(C)C)NC(=O)[C@H](CO)NC(=O)CNC1=O [compound 1235]	1.17	27.2
CC[C@H](C)[C@@H]1NC(=O)[C@H](CCCNC(=N)N)NC(=O)[C@H](CC(=O)O)NC(=O)[C@H](CC(C)C)NC(=O)[C@@H]2CCCN2C(=O)[C@H](CC(C)C)NC(=O)CNC(=O)[C@H](Cc2ccccc2)NC(=O)[C@@H](NC(=O)CNC(=O)[C@H](CO)NC(=O)[C@H](CO)NC(=O)[C@H](CC(C)C)NC(=O)CNC(=O)[C@H](CCCCN)NC(=O)[C@H](CCCCN)NC(=O)[C@H](CCC(N)=O)NC(=O)[C@H](C)NC(=O)CNC(=O)[C@H](Cc2c[nH]cn2)NC(=O)[C@H](Cc2ccc(O)cc2)NC(=O)COCCOCCNC(=O)COCCOCCNC(=O)CC[C@H](NC(=O)CCCCCCCCCCCCCCCCC(=O)O)C(=O)O)CSSC[C@@H](C(=O)O)NC(=O)CNC(=O)[C@H](CC(C)C)NC(=O)CNC(=O)[C@H](CO)NC(=O)[C@H](CC(C)C)NC(=O)[C@H](CO)NC(=O)CNC1=O [compound 1241] ({C18 diacid-γGlu-AEEA-AEEA}-YHGAQKKGLSSGCFGLPLDRIGSLSGLGC-OH; disulfide 13-29)		30.5
CC[C@H](C)[C@@H]1NC(=O)[C@H](CCCNC(=N)N)NC(=O)[C@H](CC(=O)O)NC(=O)[C@H](CC(C)C)NC(=O)[C@@H]2CCCN2C(=O)[C@H](CC(C)C)NC(=O)CNC(=O)[C@H](Cc2ccccc2)NC(=O)[C@@H](NC(=O)CNC(=O)[C@H](CO)NC(=O)[C@H](CO)NC(=O)[C@@H](NC(=O)CNC(=O)[C@@H](NC(=O)[C@H](CCCCN)NC(=O)[C@H](CCC(N)=O)NC(=O)[C@H](C)NC(=O)CNC(=O)[C@H](Cc2c[nH]cn2)NC(=O)[C@H](Cc2ccc(O)cc2)NC(=O)COCCOCCNC(=O)COCCOCCNC(=O)CC[C@H](NC(=O)CCCCCCCCCCCCCCCCC(=O)O)C(=O)O)[C@@H](C)O)C(C)C)CSSC[C@@H](C(=O)O)NC(=O)CNC(=O)[C@H](CC(C)C)NC(=O)CNC(=O)[C@H](CO)NC(=O)[C@H](CC(C)C)NC(=O)[C@H](CO)NC(=O)CNC1=O [compound 1303] ({C18 diacid-γGlu-AEEA-AEEA}-YHGAQKTGVSSGCFGLPLDRIGSLSGLGC-OH; disulfide 13-29)		25.5
CC[C@H](C)[C@@H]1NC(=O)[C@H](CCCNC(=N)N)NC(=O)[C@H](CC(=O)O)NC(=O)[C@H](CC(C)C)NC(=O)[C@@H]2CCCN2C(=O)[C@H](CC(C)C)NC(=O)CNC(=O)[C@H](Cc2ccccc2)NC(=O)[C@@H](NC(=O)CNC(=O)[C@H](CO)NC(=O)[C@H](CO)NC(=O)[C@H](CC(C)C)NC(=O)CNC(=O)[C@@H](NC(=O)[C@H](Cc2c[nH]cn2)NC(=O)[C@H](CCC(N)=O)NC(=O)[C@H](C)NC(=O)CNC(=O)[C@H](Cc2c[nH]cn2)NC(=O)[C@H](Cc2ccc(O)cc2)NC(=O)COCCOCCNC(=O)COCCOCCNC(=O)CC[C@H](NC(=O)CCCCCCCCCCCCCCCCC(=O)O)C(=O)O)[C@@H](C)O)CSSC[C@@H](C(=O)O)NC(=O)CNC(=O)[C@H](CC(C)C)NC(=O)CNC(=O)[C@H](CO)NC(=O)[C@H](CC(C)C)NC(=O)[C@H](CO)NC(=O)CNC1=O [compound 1304] ({C18 diacid-γGlu-AEEA-AEEA}-YHGAQHTGLSSGCFGLPLDRIGSLSGLGC-OH; disulfide 13-29)		20.7
